These results are taken from US10226465B2, “Composition for use in increasing engraftment efficacy of haematopoetic stem cells after transplantation” (priority 2015, dated 2019).

What is called Kd is the constant that tells how readily two partners part at equilibrium.

In assay [1] the test system is murine haematopoetic progenitor cells. The experiment in a line: In vitro migration assay (Transwell, towards SDF-1/CXCL12), murine cells. The following applies: 100 ng/ml murine SDF-1, 4 h; for SDF-1/CXCL12-induced migration of Treprostinil+forskolin-stimulated cells: 10 μM AMD3100. In kind it is cell-based.
Method: Murine haematopoetic progenitor cells were pretreated in vitro with the combination of 10 μM Treprostinil (Trep) and 30 μM forskolin (Fsk) (Sigma Aldrich, Vienna, Austria) or vehicle for 1 h at 37° C. in growth factor containing stem cell medium [(StemSpan™ (SFEM) (Stemcell technologies, USA) (50 ng/mL murine stem cell factor (SCF), 50 ng/mL fms-like tyrosine kinase-3 ligand (Flt3), 50 ng/mL interleukin 11 (IL11) and 150 ng/mL murine interleukin 3 (mIL3)] purchased from PeproTech (London, United Kingdom)). Thereafter cells were washed and resuspended at 2×10^6 cells/mL in medium.
The cell suspension (0.1 mL containing 2×10^5 cells) was added to the upper chamber of Transwell™ dishes (5 μm pore diameter). The bottom chamber was followed with medium or medium containing 100 ng/ml murine stromal derived factor-1 (SDF-1=CXCL12). Cells were allowed to migrate for 4 h at 37° C. Subsequently, the number of cells recovered from the lower chamber was determined by a cell counter. The number of migrated cells was expressed as percentage of total cells added to the upper chamber.
Hematopoietic stem and progenitor cells were preincubated with Treprostinil (10 μM; T) and forskolin (30 μM; F) for 1 h at 37° C., washed and resuspended at a cell density of 2×10^6 cells/mL. The cell suspension (2×10^5 cells in 0.1 mL) was added to the upper chamber the Transwell™ dish, which contained medium with and without 10 ΞM CXCR4 antagonist AMD3100 (10 μM). The medium in the lower chamber contained 100 ng/ml murine SDF-1. The incubation lasted for 4 h at 37° C.; thereafter cells recovered in the lower chamber were counted as outlined in the legend to FIG. 1. Data shown are means±SEM from three independent experiments carried out in triplicate. Statistically significant differences were assessed by one way ANOVA followed by Dunnett's multiple comparisons (***, p<0.001).
The test system of assay [2] is lethally irradiated recipient BALB/c mice. In words: Bone marrow transplantation (survival of recipient mice, Example 6). Format: in vivo. The protocol: These were subsequently divided in two groups. Mice allocated to group 1 (n=10) were further subjected to in vivo treatment with Treprostinil (0.15 mg kg^−1 8 h^−1) whereas mice in group 2 (n=10) received both Treprostinil (0.15 mg kg^−1 8 h^−1) and AMD3100 (3.3 mg kg^−1 8 h^−1) by subcutaneous injection every 8 h for 10 days.
Isogenic recipient mice (C57BL/6 or BALB/c) were subjected to lethal irradiation. […] Lin^− (Sca1^+ and c-Kit^+) HSPCs cells were prepared as outlined above and were pretreated ex vivo in the absence and presence of the combination of 10 μM Treprostinil+30 μM forskolin (FSK) for 1 h at 37° C. Thereafter, the cells (1-5*10^5/mouse) were injected via the tail vein. White blood cell counts were determined by FACS, blood samples were collected every 3 to 5 days starting on day 9 (where blood cell count was ˜1 G/L. In some instances, mice (25-30 g) were also treated with (i) Treprostinil (0.15 mg kg 8 h^−1) and vildagliptin (10 mg kg−^1 12 h^−1) or with the combination of both administered subcutaneously every 8 h for 10 days.
If this was the case, the action of vildagliptin ought to be blunted by simultaneous administration of AMD3100/plerixafor. An experiment was done with seven groups of recipient BALB/c mice (5/group). Several of these groups were internal controls, which were included to verify that earlier findings were recapitulated. […] It is stressed that all conditions were tested in parallel, thus a comparison is legitimate.
Murine HPSCs isolated from donor BALB/c mice were treated in vitro with 10 μM Treprostinil and 30 μM forskolin or vehicle (solid line) for 1 h at 37° C. After washing, 2×10^5 cells were injected into lethally irradiated (10 Gy) recipient BALB/c mice. […] Another group of mice (dotted lines/triangles; n=20) received HSPCs pretreated with 10 μM Treprostinil and 30 μM forskolin, and were also treated in vivo with Treprostinil (0.15 mg kg−1 8 h−1). The next group of mice (dotted lines/squares; n=20) again received in vitro HSPCs pretreated with forskolin+Treprostinil and were further treated in vivo with both Treprostinil (0.15 mg kg^−1 8 h^−1) and vildagliptin (10 mg/kg/24 h). Finally, a group of mice (dashed lines/circles; n=20) received in vitro HSPCs pretreated with forskolin+Treprostinil and were treated in vivo with vildagliptin (10 mg kg−1 per day). In vivo treatment was done by subcutaneous injections, it was initiated directly after transplantation and continued for 10 days.

In assay [3] the test system is lethally irradiated recipient C57Bl/6 (CD45.2+) mice. In words: Homing assay (CD45.1+ donor cells in bone marrow of CD45.2+ recipients, FACS, Example 6). Format: in vivo. The protocol:
The lineage-negative HSPCs were isolated from whole bone marrow cells of donor mice B6.SJL-PtrcAPep3B/Boyl (CD45.1+) using MACS micro beads (see above). The cells were in vitro treated with 10 μM Treprostinil and 30 μM forskolin or vehicle control for 1 h at 37° C. After washing, 0.2×10^6 lineage-negative CD 45.1^+ cells were injected in to the lethally irradiated (10 Gy) recipient C57Bl/6 (CD45.2^+) mice. Recipient mice were also treated in vivo with either Treprostinil (0.15 mg kg 8 h^−1), vildagliptin (10 mg kg^−1) or with the combination of both drugs subcutaneously. Control mice were injected with the same volume of vehicle. The whole bone marrow cells were isolated from recipient mice 16 h after transplantation. After lysis of red blood cells, the cells were stained for CD45.1 and CD45.2 markers. The proportion of CD45.1^+ and CD45.2^+ cells in the bone marrow was determined by flow cytometry.
Given that DPP-IV inhibitors may be a suitable combination partner for Treprostinil, we explored whether the DPP-IV inhibitor vildagliptin enhanced the action of Treprostinil. This was first tested in an approach, which measured the ability of injected HSPCs to home into the bone marrow: HSPCs harvested from the bone marrow of CD 45.1+ donor mice were injected into isogenic CD45.2 recipients. The animals were sacrificed after 16 h and the amount of CD45.1+ cells, which were retrieved from their bone marrows was quantified by FACS.
The recipient mice were then divided in 7 groups. […] Mice allocated to group 3 received only in vitro-treated cells, those in group 4 were subjected—in addition—to in vivo Treprostinil (Trep, 0.15 mg kg^−1 8 h^−1). Mice assigned to group 5 were administered a combined in vivo treatment with Treprostinil (0.15 mg kg−1 8 h−1) and AMD3100 (3.3 mg kg^−1 8 h^−1). Mice in group 5 received in vivo both Treprostinil (0.15 mg kg^−1 8 h^−1) and vildagliptin (10 mg kg^−1/d), and finally mice in group 6 were subjected to in vivo vildagliptin. The ability of CD45.1+cells to home into the bone marrow was assessed after 16 h by analysing the bone marrow of the recipients by FACS. Data are as means±SEM (n=3). Statistical comparisons were done by ANOVA followed by Tukey's multiple comparison.

The test system of assay [4] is lethally irradiated recipient BALB/c mice. The experiment in a line: In vivo engraftment assay (survival, Example 5). The following applies: 0.2×10^6 pretreated cells, 10/group. The protocol: Haematopoetic progenitor cells isolated from bone marrow of donor mice (BALB/c) as outlined in the legend to FIG. 4. The cells were treated in vitro with 10 μM Treprostinil and 30 μM forskolin or vehicle for 1 h at 37° C. After washing, 0.2×10^6 lineage-negative haematopoetic progenitor cells were injected via the tail vein into lethally irradiated (9 Gy) recipient BALB/c mice (10/group). If not pretreated in vitro with the combination of Treprostinil and forskolin, this number of haematopoetic progenitor cells is too low to rescue the recipient animals. Accordingly, the group of mice, which received cells that had not been pretreated, died within the first week (black line, CTRL). The limiting number of haematopoetic stem cells sufficed to rescue 50% of the mice, which had received pretreated cells and were then treated with Treprostinil (3 μg/8 h s.c. for 10 days; red curve labeled in vitro pretreated cells+in vivo treatment of recipient mice with Treprostinil). […] In contrast, mice, which received the combination of Treprostinil (3 μg/8 h) and vildagliptin (10 mg/kg/24 h) had the worst outcome of all recipient mice that had received pretreated cells: only 2 out of ten mice survived (grey line labeled in vitro pretreated cells+in vivo treatment of recipient mice with the combination of Treprostinil and vildagliptin). […]

Assay [5] shares this test system. The experiment in a line: In vivo homing assay (colony formation from recipient bone marrow, Example 4).
For assay [6], the system named is human haematopoetic CD34+ stem and progenitor cells. The experiment in a line: [3H]cAMP accumulation assay. Format: cell-based. As to conditions: for cAMP response after pertussis toxin pretreatment: pertussis toxin 16 h, + 30 μM forskolin. The protocol: Human haematopoetic CD34+ stem and progenitor cells (HSPCs, 4*10^5/mL) were first preincubated for 16 h in the absence presence of 100 ng/ml pertussis toxin (Sigma Aldrich) in X-VIVO15 medium supplemented with growth factors followed by metabolic labelling of the adenine nucleotide pool by an additional 4 h incubation period in [^3H]adenine (Perkin Elmer, 1 μCi/mL) in the X-VIVO15 medium supplemented with growth factors and 10 μg/mL adenosine deaminase (Roche). Thereafter, the cells were challenged with 1 or 10 μM Treprostinil, 1 or 10 μM dimethyl-PGE2 (dmPGE2), forskolin (30 μM) or the combination of forskolin and prostanoids for 30 min. The cells were then pelleted (5 min at 100 g), the medium was removed and the pellet was lysed in ice-cold 2.5% perchloric acid (0.9 mL) containing 0.1 mM cAMP, held on ice for 1 h and neutralized with 4.2 M KOH (0.1 mL). ATP and cAMP were separated by sequential chromatography on columns containing Dowex AG50-X8 and neutral alumina (3).
After metabolic labelling with [3H]adenine, human HSPCs were stimulated with Treprostinil (Trep, 10 μM), dmPGE2 (10 μM) or forskolin (Fsk, 30 μM), the combination of Treprostinil (10 μM) or of dmPGE2 (10 μM) with forskolin (30 μM) as outlined under Materials and Methods. Where indicated HSPCs had been pretreated with pertussis toxin (PTX) for 16 h prior to stimulation. Data are from three independent experiments carried out in triplicate, error bars indicate s.e.m. […] This difference was abolished by pertussis toxin pretreatment (ns, not significant).
On the technique in general: cAMP levels reflect the balance of adenylyl cyclase and phosphodiesterase activity.

In a further assay the target is EP2 receptors (Homo sapiens, UniProt P43116). The following applies: read-out: Kd for activation of isolated EP2 receptors; cited from earlier work.
Setting [7] is: seven groups, 5/group, all received 2*10^5 Treprostinil+forskolin-pretreated HSPCs, in vivo treatment as named.
The mark [8] stands for this setting: pretreated HSPCs, recipients given Treprostinil in vivo plus the named drug (AMD3100 3.3 mg kg-1 8 h-1 or vildagliptin 10 mg kg-1/d).
Where [9] appears, read: 2*10^5 Treprostinil+forskolin-pretreated HSPCs, in vivo s.c. for 10 days (Treprostinil 0.15 mg kg-1 8 h-1 or vildagliptin 10 mg kg-1 per day), n=20.
[10] abbreviates: Treprostinil+forskolin-pretreated HSPCs, recipients given one drug in vivo (Treprostinil 0.15 mg kg-1 8 h-1 or vildagliptin 10 mg kg-1/d), 16 h.
Setting [11] is: Treprostinil+forskolin-treated cells, recipients treated in vivo (Treprostinil 3 μg/8 h, vildagliptin 10 mg/kg/24 h).
[12] abbreviates: untreated cells, recipients treated in vivo (Treprostinil 3 μg/8 h, vildagliptin 10 mg/kg/24 h) from 24 h before transplantation.

Sequence of EP2 receptors (P43116 whole entry): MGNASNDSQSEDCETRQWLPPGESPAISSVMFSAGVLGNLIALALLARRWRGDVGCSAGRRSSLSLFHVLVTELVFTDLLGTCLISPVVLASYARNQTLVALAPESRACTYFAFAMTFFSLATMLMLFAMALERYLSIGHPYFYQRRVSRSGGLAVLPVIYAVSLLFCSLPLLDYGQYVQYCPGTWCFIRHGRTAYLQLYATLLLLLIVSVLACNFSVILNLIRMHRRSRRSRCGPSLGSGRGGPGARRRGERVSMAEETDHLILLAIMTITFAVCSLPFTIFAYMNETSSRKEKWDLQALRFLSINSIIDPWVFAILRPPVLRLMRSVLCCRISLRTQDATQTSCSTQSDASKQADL

In the case of `c1cc(CN2CCCNCCNCCCNCC2)ccc1CN1CCCNCCNCCCNCC1` [AMD3100], the “SDF-1/CXCL12-induced migration of Treprostinil+forskolin-stimulated cells” value is given as “inhibits the SDF-1/CXCL12-induced migration” in assay [1] and “blocked” in assay [1] (listed as plerixafor/AMD3100). For the same compound, the “survival of recipient mice” value is recorded as “all recipient mice eventually succumbed to bone marrow failure” in assay [2] (pretreated HSPCs, AMD3100 3.3 mg kg-1 8 h-1 concomitant with Treprostinil 0.15 mg kg-1 8 h-1 s.c. 10 days, n=10) and “Enhances Survival” in assay [2] (setting [7]). For the same compound, the “homing of CD45.1+ cells into bone marrow” value in assay [3] (setting [8]) is reported as “abolished”.

`N#C[C@@H]1CCCN1C(=O)CNC12CC3CC(CC(O)(C3)C1)C2` [vildagliptin]: the mice survived in assay [4] (in vivo s.c. for 10 days (vildagliptin 10 mg/24 h; combination Treprostinil 3 μg/8 h + vildagliptin 10 mg/kg/24 h)) was 10 out of 10. For the same compound, the “SDF-1/CXCL12-induced migration of Treprostinil+forskolin-preincubated cells” value in assay [1] (30 nM vildagliptin) is listed as “enhances the SDF-1/CXCL12-induced migration”. The “survival of recipient mice” value in assay [2] (setting [9]) is listed as 100%; in assay [2] (setting [7]) it was “fared best”. For the same compound, the “homing of CD45.1+ cells into bone marrow” value is on record as “most pronounced increase in homing” in assay [3] (setting [10]); “abrigated the homing effect of Treprostinil” in assay [3] (setting [8]); “did not enhance homing” in assay [3] (untreated HSPCs, recipients given vildagliptin 10 mg kg-1/d in vivo). Further, the “homing into bone marrow (colonies)” value in assay [5] (setting [11]) is on record as “promoted homing”; in assay [5] (setting [12]), “did not promote homing”.

Regarding `CCCCC(C)(C)[C@H](O)/C=C/[C@H]1[C@H](O)CC(=O)[C@@H]1C/C=C\CCCC(=O)O` [dmPGE2, 16,16-dimethyl PGE2], in assay [6], the “cAMP response after pertussis toxin pretreatment” value was “increased the response to dmPGE2”. In addition, on EP2 receptors, the equilibrium dissociation constant (Kd) is around 1 nM.

With `CCCCC[C@H](O)CC[C@@H]1[C@H]2Cc3cccc(OCC(=O)[O-])c3C[C@H]2C[C@H]1O.[Na+]` [Treprostinil, (1R,2R,3aS,9aS)-[[2,3,3a,4,9,9a-hexahydro-2-hydroxy-1-[(3S)-3-hydroxyoctyl]-1H-benz[f]inden-5-yl]oxy]acetic acid monosodium salt], the mice rescued in assay [4] (in vivo Treprostinil 3 μg/8 h s.c. for 10 days) is given as 50%. For the same compound, in assay [2] (setting [9]), the “survival of recipient mice” value was found to be 60%. The “shape of in vivo dose-response-curve for bone marrow engraftment” value in assay [2] (noted previously, higher doses less beneficial than standard dose) was “bell-shaped”. For the same compound, the “cAMP in haematopoetic progenitor cells” value in assay [6] is reported as “stimulates cAMP”. In addition, the “cAMP accumulation, efficacy compared” value in assay [6] (10 μM, in the presence of 30 μM forskolin, 30 min) is recorded as “more efficacious than 10 μM dmPGE2”; in assay [6] (absence or presence of 30 μM forskolin), “significantly more efficacious than dmPGE2”. Further, in assay [6] (human haematopoetic stem and progenitor cells), the “span of concentration-response curve (cAMP)” value was “more than two orders of magnitude between 10 and 90% of the response”. Besides, the “cAMP response after pertussis toxin pretreatment” value in assay [6] is “no significant difference”. Moreover, the “homing of CD45.1+ cells into bone marrow” value in assay [3] (setting [10]) is listed as “increased their homing into the bone marrow”. Besides, the “homing into bone marrow (colonies)” value is listed as “promoted homing” in assay [5] (setting [11]) and “did not promote homing” in assay [5] (setting [12]).
